Source: patent publication US9670193B2 (Novartis AG, priority 2011, dated 2017)

How the values were obtained:
Assay type in all cases: biochemical
Human recombinant HDAC4 [1] = molecular target: T1, Human recombinant HDAC4 (Homo sapiens (Human), UniProt P56524); experiment: Earlier version of HDAC4 assay; conditions: 10 μM substrate, test concentrations 0.003 μM to 100 μM
Procedure: Description of Earlier Version of HDAC4 Assay
Human recombinant HDAC4 was expressed in full length form (aa 2-1084) in Sf9 insect cells (obtained from ATCC) using baculovirus generated with Bac-to-Bac system (Invitrogen). Test compounds were serially diluted to reach final test concentrations from 0.003 μM to 100 μM. HDAC4 and test compounds were incubated in 25 mM Tris buffer pH 8.0 containing 137 mM NaCl, 2.7 mM KCl, 1 mM MgCl2 and 0.05% (w/v) bovine serum albumine for 2 hours at room temperature in presence of 10 μM of acetyl-Gly-Ala-Lys(ε-trifluoroacetyl)-AMC (AMC=7-amino-4-methyl coumarin) in a final volume of 200 μl. Control wells with HDAC4 only (positive control) and without HDAC4 (negative control) were included on the microplate. Bovine trypsin (10 μl of a 0.4 mg/ml solution) was added and the plate incubated for additional 15 minutes at room temperature. The plate was placed in a fluorescence microplate reader, and read at an excitation wavelength of 360 nm and an emission wavelength of 450 nm with a cut-off filter of 435 nm. Fluorescence values for all wells containing HDAC4 (positive control and wells with test compound) were corrected by subtracting negative control fluorescence values, and IC50 values were calculated by fitting the dose-response curves to a 4-parameter logistic function.

Human recombinant HDAC4 [2] = molecular target: T1, Human recombinant HDAC4; experiment: HDAC4 assay (Test 1), fluorescence, acetyl-Gly-Ala-Lys(ε-trifluoroacetyl)-AMC substrate; conditions: 5 μM substrate, 2 hours at room temperature
Procedure: Test 1: HDAC4 Assay Description
(§1) Human recombinant HDAC4 was expressed in full length form (aa 2-1084) in Sf9 insect cells (obtained from ATCC) using baculovirus generated with Bac-to-Bac system (Invitrogen). Test compounds were serially diluted to reach final test concentrations from 0.000128 μM to 10 μM. HDAC4 and test compounds were incubated in 25 mM Tris buffer pH 8.0 containing 137 mM NaCl, 2.7 mM KCl, 1 mM MgCl2, 0.05% (w/v) bovine serum albumine and 0.005% (v/v) Triton-X-100 for 2 hours at room temperature in presence of 5 μM of acetyl-Gly-Ala-Lys(ε-trifluoroacetyl)-AMC (AMC=7-amino-4-methyl coumarin) in a final volume of 9 μl. Control wells with HDAC4 only (positive control) and without HDAC4 (negative control) were included on the microplate. Bovine trypsin (4.5 μl of a 300 nM solution) was added and the plate incubated for additional 15 minutes at room temperature. The plate was placed in a fluorescence microplate reader, and read at an excitation wavelength of 360 nm and an emission wavelength of 450 nm with a 10 nm bandpath. Fluorescence values for all wells containing HDAC4 (positive control and wells with test compound) were corrected by subtracting negative control fluorescence values, and IC50 values were calculated by fitting the dose-response curves to a 4-parameter logistic function.

[3] = molecular target: Human recombinant full length HDAC1 (Homo sapiens (Human), UniProt Q13547); experiment: HDAC1 assay (Test 2), acetyl-Gly-Ala-Lys(acetyl)-AMC substrate; conditions: 5 μM substrate, 2 hours at room temperature
Human recombinant full length HDAC1, sequence (Q13547 whole entry): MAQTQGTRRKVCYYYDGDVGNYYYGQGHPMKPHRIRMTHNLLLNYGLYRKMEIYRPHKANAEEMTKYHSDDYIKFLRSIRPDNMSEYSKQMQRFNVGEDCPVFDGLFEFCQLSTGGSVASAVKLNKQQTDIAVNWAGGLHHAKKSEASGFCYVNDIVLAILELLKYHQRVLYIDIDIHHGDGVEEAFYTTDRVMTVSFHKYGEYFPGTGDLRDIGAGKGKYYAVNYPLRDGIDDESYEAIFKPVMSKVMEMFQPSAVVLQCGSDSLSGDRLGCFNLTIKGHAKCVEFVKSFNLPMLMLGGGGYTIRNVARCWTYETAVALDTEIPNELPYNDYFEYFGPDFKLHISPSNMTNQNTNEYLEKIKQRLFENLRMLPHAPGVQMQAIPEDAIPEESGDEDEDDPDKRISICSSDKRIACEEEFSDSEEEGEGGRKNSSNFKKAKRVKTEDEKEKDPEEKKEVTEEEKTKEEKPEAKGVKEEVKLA
Procedure: as §1
Test 2: HDAC1 Assay Description
A similar assay procedure as described in Test 1 was used for HDAC1. Human recombinant full length HDAC1 expressed in a baculovirus expression system was purchased from BPS BioSciences (San Diego, Calif., U.S.A.). The substrate used in the […] assay was 5 μM of acetyl-Gly-Ala-Lys(acetyl)-AMC.

[4] = molecular target: Human recombinant full length HDAC6 (Homo sapiens (Human), UniProt Q9UBN7); experiment: HDAC6 assay (Test 3), acetyl-Gly-Ala-Lys(acetyl)-AMC substrate; conditions: 5 μM substrate, 2 hours at room temperature
Human recombinant full length HDAC6, sequence (Q9UBN7 whole entry): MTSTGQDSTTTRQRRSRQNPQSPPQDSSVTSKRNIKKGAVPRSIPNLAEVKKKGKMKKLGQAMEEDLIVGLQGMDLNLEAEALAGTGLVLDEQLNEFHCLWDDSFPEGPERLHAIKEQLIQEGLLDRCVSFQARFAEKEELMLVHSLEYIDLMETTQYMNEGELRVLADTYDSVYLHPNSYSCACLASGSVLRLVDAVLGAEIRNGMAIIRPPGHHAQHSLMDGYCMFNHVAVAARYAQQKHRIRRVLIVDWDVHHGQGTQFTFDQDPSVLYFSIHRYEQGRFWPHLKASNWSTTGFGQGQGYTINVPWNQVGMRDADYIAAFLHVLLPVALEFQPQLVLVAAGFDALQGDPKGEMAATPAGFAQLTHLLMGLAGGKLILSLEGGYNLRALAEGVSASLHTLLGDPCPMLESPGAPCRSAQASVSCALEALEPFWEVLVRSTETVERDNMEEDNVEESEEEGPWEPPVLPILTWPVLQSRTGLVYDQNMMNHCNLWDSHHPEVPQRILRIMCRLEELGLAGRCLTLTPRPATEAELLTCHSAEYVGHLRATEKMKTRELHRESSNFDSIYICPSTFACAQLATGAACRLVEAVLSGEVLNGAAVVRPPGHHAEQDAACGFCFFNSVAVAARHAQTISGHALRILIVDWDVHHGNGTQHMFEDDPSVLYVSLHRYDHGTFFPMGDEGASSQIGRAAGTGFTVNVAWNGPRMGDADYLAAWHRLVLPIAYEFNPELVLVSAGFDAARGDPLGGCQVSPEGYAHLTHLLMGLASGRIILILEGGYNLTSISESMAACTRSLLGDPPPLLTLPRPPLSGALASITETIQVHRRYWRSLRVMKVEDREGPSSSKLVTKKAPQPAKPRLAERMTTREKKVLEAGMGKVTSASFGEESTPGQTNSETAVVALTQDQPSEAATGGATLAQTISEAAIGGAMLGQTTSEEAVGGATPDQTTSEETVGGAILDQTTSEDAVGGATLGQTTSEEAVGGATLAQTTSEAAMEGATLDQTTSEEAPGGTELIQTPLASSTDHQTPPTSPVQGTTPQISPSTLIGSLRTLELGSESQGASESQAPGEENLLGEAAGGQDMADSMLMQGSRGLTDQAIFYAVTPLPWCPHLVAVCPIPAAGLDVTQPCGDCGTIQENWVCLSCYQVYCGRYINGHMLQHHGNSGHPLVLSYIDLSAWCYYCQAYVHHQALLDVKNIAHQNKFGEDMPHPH
Procedure: as §1
Test 3: HDAC6 Assay Description
A similar assay procedure as described in Test 1 was used for HDAC6. Human recombinant full length HDAC6 expressed in a baculovirus expression system was purchased from BPS BioSciences (San Diego, Calif., U.S.A.). The substrate used in the […] assay was 5 μM of acetyl-Gly-Ala-Lys (acetyl)-AMC.

T1 sequence (P56524 2-1084): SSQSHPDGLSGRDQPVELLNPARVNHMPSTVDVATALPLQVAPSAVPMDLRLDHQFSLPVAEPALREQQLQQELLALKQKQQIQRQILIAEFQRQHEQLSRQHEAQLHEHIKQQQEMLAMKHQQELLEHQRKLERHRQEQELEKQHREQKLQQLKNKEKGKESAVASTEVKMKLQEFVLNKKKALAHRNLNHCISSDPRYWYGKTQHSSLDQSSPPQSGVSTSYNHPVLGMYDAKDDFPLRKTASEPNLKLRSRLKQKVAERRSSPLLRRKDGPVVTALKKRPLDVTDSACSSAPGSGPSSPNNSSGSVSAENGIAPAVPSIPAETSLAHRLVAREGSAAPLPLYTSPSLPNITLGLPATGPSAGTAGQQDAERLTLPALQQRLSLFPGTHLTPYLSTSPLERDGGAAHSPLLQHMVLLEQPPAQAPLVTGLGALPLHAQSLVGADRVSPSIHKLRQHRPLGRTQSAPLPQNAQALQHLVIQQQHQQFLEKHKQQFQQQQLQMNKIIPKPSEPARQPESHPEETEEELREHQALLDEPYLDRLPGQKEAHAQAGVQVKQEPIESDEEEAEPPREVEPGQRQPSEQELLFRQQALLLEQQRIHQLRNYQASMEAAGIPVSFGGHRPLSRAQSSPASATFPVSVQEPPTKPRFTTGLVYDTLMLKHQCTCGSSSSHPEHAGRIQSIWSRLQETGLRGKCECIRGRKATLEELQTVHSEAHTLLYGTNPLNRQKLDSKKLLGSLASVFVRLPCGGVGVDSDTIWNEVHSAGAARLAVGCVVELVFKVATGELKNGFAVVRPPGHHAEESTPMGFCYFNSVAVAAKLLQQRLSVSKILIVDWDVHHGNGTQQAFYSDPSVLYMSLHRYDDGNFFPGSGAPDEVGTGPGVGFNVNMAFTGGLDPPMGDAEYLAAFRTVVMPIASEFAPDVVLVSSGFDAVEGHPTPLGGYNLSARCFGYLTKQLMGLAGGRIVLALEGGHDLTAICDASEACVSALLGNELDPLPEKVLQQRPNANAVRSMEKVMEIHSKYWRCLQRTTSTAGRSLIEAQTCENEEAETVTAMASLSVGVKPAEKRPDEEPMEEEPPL

| SMILES | IC50 (Human recombinant HDAC4 [1]) [µM] | IC50 (Human recombinant HDAC4 [2]) [µM] | IC50 [3] [µM] | IC50 [4] [µM] |
| --- | --- | --- | --- | --- |
| C[C@@H](Nc1ccc(-c2noc(C(F)(F)F)n2)cn1)c1ccncc1 [Example 44] |  | 0.029 | 2.7 | 1.03 |
| C[C@@H](Nc1ccc(-c2noc(C(F)(F)F)n2)nn1)c1ccncc1 [Example 45, (R)—N-(1-(Pyridin-4-yl)ethyl)-6-(5-(trifluoromethyl)-1,2,4-oxadiazol-3-yl)pyridazin-3-amine] |  | 0.065 | 3.2 | 0.61 |

More lines, now with the values ahead:

| IC50 (Human recombinant HDAC4 [1]) [µM] | IC50 (Human recombinant HDAC4 [2]) [µM] | IC50 [3] [µM] | IC50 [4] [µM] | SMILES |
| --- | --- | --- | --- | --- |
| > 30 |  |  |  | C[C@@H](NC(=O)c1cnc(-c2noc(C(F)(F)F)n2)nc1)c1ccccc1 [(R)—N-(1-phenylethyl)-2-(5-(trifluoromethyl)-1,2,4-oxadiazol-3-yl)pyrimidine-5-carboxamide] |
|  | 0.066 | > 10 | > 10 | C[C@H](CN(C)Cc1ccccc1)NC(=O)c1cnc(-c2noc(C(F)(F)F)n2)nc1 [Example 46] |
| > 30 |  |  |  | O=C(NCc1ccncc1)c1cnc(-c2noc(C(F)(F)F)n2)nc1 [N-(pyridin-4-ylmethyl)-2-(5-(trifluoromethyl)-1,2,4-oxadiazol-3-yl)pyrimidine-5-carboxamide] |
